Source: US20190022101A1, “Treating Cochlear Synaptopathy” (Massachusetts Eye and Ear Infirmary, priority 2016, published 2019)
“Also recorded” adds a separate entry of the source.

Experiments:
[1] = test system: isolated SGNs and denervated organ of Corti; assay: Afferent synaptogenesis in co-culture of isolated SGNs and denervated organ of Corti; assay type: cell-based, mouse; settings: P4/5 CBA/CaJ co-culture 6 days, amitriptyline 0.5 uM, vs untreated controls
Description: FIGS. 4A-B show amitriptyline induced cochlear afferent synaptogenesis. Isolated SGNs and denervated organ of Corti were extracted from P4/5 CBA/CaJ cochlea, the co-cultured for 6 days (see Brugeaud et al. (2014) Dev Neurobiol. April; 74(4):457-66 and Tong et al. (2013) J Assoc Res Otolaryngol. 14(3):321-9 for detailed methods). In some co-cultured explants, amitriptyline (AT; 0.5 uM) was added (4A, 4B). After culture, explants were fixed and immunostained with antibodies against neurofilament (green), CtBP2 (blue) and PSD-95 (red). Confocal images were taken in the IHC region. Newly generated afferent synapses were identified by juxtaposed CtBP2/PSD-95 puncta (yellow arrows).
The afferent innervation of hair cells is removed by physical ablation. At postnatal day four to six (P4-P6), the cochlea is dissected and transferred to Petri dishes. The inner and outer hair cells and surrounding supporting cells of the organ of Corti are separated from the SGN at the greater epithelial ridge with a surgical micro-blade, to obtain an intact sensory epithelium devoid of neurons. […] Formation of new synapses and growth of the fibers to contact hair cells is assessed by immunohistochemistry. […]

[2] = test system: IHC synapses and spiral ganglion cells; assay: Cochlear synapse and ganglion cell counts in vivo after synaptopathic noise exposure; design: species or system CBA/CaJ mice; settings: for synapses / cochlear synaptic counts: one year (52 wk) after synaptopathic noise exposure
Description: (§1) Animals: Experiments were carried out in CBA/CaJ mice. CBA/CaJ is a useful reference for studies of both noise-induced and age-related hearing loss and to cochlear injury. […] J Assoc Res Otolaryngol. 2014 October; 15(5):721-38). With respect to aging, after normalizing for cochlear place and relative lifespan, the pace of age-related threshold elevation and SGN loss in CBA/CaJ looks remarkably like that seen in human data (Sergeyenko et al. (2013)). Thus, the strain is particularly appropriate to provide the optimization of bioassays and treatments for application to the human.
(§2) Noise Exposure: Noise exposure stimuli were generated by a waveform generator (Tucker-Davis WG1), bandpass filtered with >60 dB/octave slope (Frequency Devices), amplified (Crown D-75) and delivered (JBL compression driver) through an exponential horn extending into a small, reverberant exposure chamber. Exposures were delivered to awake animals held within small cells of a subdivided cage, one animal/cell, suspended directly below the horn of the sound-delivery loudspeaker. Noise calibration to target SPL was performed immediately before each exposure session. Sound pressure levels varied by <1 dB across all cells (Kujawa et al. (2006); Kujawa et al. (2009)).
Cochlear Tissue Processing and Analysis: Techniques for cochlear fixation, dissecting and immunostaining are described in prior publications, as are techniques for quantification of pre- and post-synaptic structures in highpower confocal z-stacks (Kujawa et al. (2009); Sergeyenko et al. (2013)). Briefly, deeply anesthetized mice were intracardially perfused, both cochleae were extracted, and the round and oval windows opened to allow intra-labyrinthine perfusion of the same fixative. One cochlea was processed for immunostained cochlear whole mounts and the other for plastic embedding. We triple stained for pre-synaptic ribbons (CtBP2), post-synaptic glutamate receptors (GluA2) and/or cochlear nerve terminals (Na+K+ATPase); myosin VIIA aided hair cell visualization. […] High-power, confocal image stacks were obtained at evenly spaced locations along the cochlear spiral, including regions of lesion focus. Given the stereotyped sectioning angle, these locations correspond roughly to the 6, 12, 22, 32, 45 and 64 kHz regions. At each locus, high-NA (1.3) objectives were used to obtain a complete confocal z-stack through the synaptic zones of all IHCs and OHCs. In each field, hair cells were counted under DIC optics, and expressed pre- and post-synaptic elements on a per hair cell basis. For afferent innervation, synaptic ribbons were counted in IHC areas, and percentages of ribbons with closely apposing glutamate receptor patches or terminals assessed, aided by the use of Amira software to enable a true 3-D analysis of the volumes of immunostained structures, and custom software to isolate the voxel space around each structure of interest.
For quantification of spiral ganglion cells, cochleae were additionally postfixed, decalcified and osmicated and embedded in EPON in a stereotyped orientation. Plastic-embedded, osmium-stained sections (10 μm) were cut in a roughly horizontal plane parallel to the modiolus. In each case, ganglion cell counts were made in the section precisely in the middle of each half turn, where the cutting angle is perpendicular to the spiral of Rosenthal's canal, at regions corresponding to the synapse counts. In each selected section, the area of Rosenthal's canal is traced, the number of ganglion cells within was counted, including only those cells with a visible nucleus and nucleolus, and the cell density is computed (cells/10,000 μm^2). All morphological analyses were performed by an individual having no knowledge of animal age or treatment, with subsets double counted by a second individual as a check for consistency. […]

cochlear function = assay: Cochlear function (ABR Wave 1, DPOAE) in vivo after synaptopathic noise exposure; design: species or system CBA/CaJ mice; settings: vs saline-treated controls; for ABR Wave 1 amplitudes (neural response amplitudes): 52 wk / one year post noise
Description: as §1, §2
Cochlear Function: Detailed techniques have been described in previous publications (Kujawa et al. (2006); Kujawa et al. (2009); Sergeyenko et al. (2013)). […]
Effects of noise on the cochlea and its interaction with age were assessed physiologically using outer hair cell-based distortion product otoacoustic emissions (DPOAEs) and neural-based auditory brainstem responses (ABRs, specifically, wave 1). Response thresholds and suprathreshold response growth functions were recorded in ketamine/xylazine-anesthetized mice. DPOAEs were measured in response to f1 and f2 primaries (f2/f1=1.2, f2=ABR test frequencies; L2=L1−10 dB). […] ABRs were recorded with 5 ms tone-pips (0.5 msec rise/fall, alternating polarity) for the same range of frequencies. Wave 1 thresholds and wave peak ratios were determined by custom offline analysis routines.

Spiral ganglion neurons = assay: Spiral ganglion neurite growth in cultured explants; assay type: cell-based, mouse; settings: P4 CBA/CaJ SGN explants, two days culture, neurofilament stain; imipramine 1 uM or 5 uM, BDNF 50 ng/ml; vs control
Description: Spiral ganglion neurons were isolated from P4 CBA/CaJ mouse cochlea and cultured with DMEM/F12 supplemented with N2 and B27 in a 37° C. incubator with 5% CO2 (control conditions)(FIG. 3A). For drug treatment, BDNF (50 ng/ml) (FIG. 3C) or imipramine (1 uM or 5 uM)(FIG. 3B or FIG. 3D) was added. Two days after culture, explants were immunostained with a neurofilament antibody.

Molecule	newly generated afferent synapses (juxtaposed CtBP2/PSD-95 puncta), synapse counts [1]	newly generated afferent synapses (juxtaposed CtBP2/PSD-95 puncta), synapse counts ([1]; listed as AT)	period of post-drug efficacy ([2]; initial results, compared to short-lived benefit of exogenously-applied neurotrophins)	synapses / cochlear synaptic counts ([2]; vs saline-treated controls)	synapses / cochlear synaptic counts ([2]; vs saline-treated controls, listed as AT)	ganglion cell counts ([2]; one year post excitotoxic noise, vs saline-treated controls)	synapses ([2]; short post-exposure times, vs saline treated controls)	effects with a single dose of drug ([2]; single dose, in vivo (FIG. 6))	ABR Wave 1 amplitudes (neural response amplitudes) (cochlear function)	ABR Wave 1 amplitudes (neural response amplitudes) (cochlear function; listed as AT)	DPOAE amplitudes (cochlear function; 52 wk post noise)	spiral ganglion neurite growth (Spiral ganglion neurons)
CN(C)CCC=C1c2ccccc2CCc2ccccc21 [amitriptyline]	synaptogenesis; also recorded: new afferent synapses are generated	greater in AT-treated than in untreated controls	long period of post-drug efficacy	cochlear synaptic and ganglion cell counts were greater	persisting to at least one year after synaptopathic exposure	ganglion cell counts were greater	more synapses than saline treated controls	could be seen even with a single dose of drug	neural response amplitudes were larger	larger in AT-treated ears	not DPOAE amplitudes (5C) were larger	
CN(C)CCCN1c2ccccc2CCc2ccccc21 [imipramine]												promoted spiral ganglion neurite growth in a dose-dependent manner; also recorded: dose-responsive dendritic sprouting
brain derived neurotrophic factor (protein, UniProt P23560 19-247, looked up) Neurotrophic factor BDNF …: APMKEANIRGQGGLAYPGVRTHGTLESVNGPKAGSRGLTSLADTFEHVIEELLDEDQKVRPNEENNKDADLYTSRVMLSSQVPLEPPLLFLLEEYKNYLDAANMSMRVRRHSDPARRGELSVCDSISEWVTAADKKTAVDMSGGTVTVLEKVPVSKGQLKQYFYETKCNPMGYTKEGCRGIDKRHWNSQCRTTQSYVRALTMDSKKRIGWRFIRIDTSCVCTLTIKRGR												promoted neurite outgrowth
